Drawing on PMC11249626, “Fluorophore-Labeled Pyrrolones Targeting the Intracellular Allosteric Binding Site of the Chemokine Receptor CCR1” (ACS Pharmacology & Translational Science, 2024), this text covers Kd for 2 molecules.

In this test the target is T1, CCR1 (Homo sapiens, UniProt P32246).
T1 sequence (P32246 1-355): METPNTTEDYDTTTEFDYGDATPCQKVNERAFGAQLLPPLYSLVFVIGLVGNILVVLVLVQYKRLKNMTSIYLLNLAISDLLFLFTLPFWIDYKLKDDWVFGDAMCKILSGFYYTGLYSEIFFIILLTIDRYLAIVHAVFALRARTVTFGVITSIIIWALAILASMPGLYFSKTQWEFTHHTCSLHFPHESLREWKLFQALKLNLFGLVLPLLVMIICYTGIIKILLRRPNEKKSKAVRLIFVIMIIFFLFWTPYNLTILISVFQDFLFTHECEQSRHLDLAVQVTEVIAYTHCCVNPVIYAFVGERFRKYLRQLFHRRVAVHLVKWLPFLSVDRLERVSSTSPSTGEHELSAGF
The experiment in a line: Membrane-based NanoBRET saturation binding assay, CCR1_Nluc membranes from HEK293T cells. The arrangement: Promega pNLF1-C (Nluc) #CCR010TN00; host or cells: HEK293T, transient (PEI). The conditions noted are these: saturation binding of fluorescent ligand, read-out: KD (equilibrium, KD(eq.)). The source says:
To evaluate the CCR1 affinity of previously reported (8–9) and new fluorescently labeled pyrrolones (11–12), we developed a NanoBRET-based binding assay (Figures 4A–H and S2A–J). To this end, we used a previously reported CCR1 construct (hereafter referred to as CCR1_Nluc) with a small and bright luciferase variant (nanoluciferase,[52] Nluc), fused to the intracellular C-terminus of CCR1 (Figures 4A and S2A).[47] […] This was expected, given the very low CCR2/CCR1 selectivity of the parental ligands 4 and 5 (Figure 1).[33] For further studies, we selected 12 due to its highest CCR1 affinity.
Cell culture: HEK293T cells were cultured as previously described.8 In brief, HEK293T cells (gift from Chair of Physiology, Prof. Dr. Alzheimer, FAU Erlangen-Nürnberg) were grown on 10 cm culture dishes at 37 °C and 5% CO2. As growth medium, Dulbecco's Modified Eagle Medium (DMEM)/F12 (Invitrogen) supplemented with 10% fetal bovine serum (FBS, Gibco™ Fetal Bovine Serum, qualified, Brazil), L-glutamine (final concentration: 2 mM; from Gibco™ L-glutamine 200 mM, 100X), penicillin (final concentration: 100 units/mL), and streptomycin (final concentration: 100 µg/mL; from Gibco™ Penicillin-Streptomycin 10,000 U/mL) was used. Cells were split every three to four days and regularly confirmed to be free of mycoplasma contamination using the luminescence-based MycoAlert Plus Kit (Lonza).
Transient transfection using polyethylenimine: For transfection, we used a previously published procedure.8 In brief, HEK293T cells were plated onto culture dishes (Ø 10 cm or Ø 15 cm) and grown to a confluence of approximately 50% at 37 °C and 5% CO2. The growth medium was renewed one-hour before transfection. The transfection mix was prepared, as described in the following. Solution A (0.4-2.2% total DNA (1-5.5 µg) in Gibco™ phosphate buffered saline, pH 7.4) and solution B (3% PEI (linear, 25 kDa, from Polysciences) solution prepared from a PEI stock solution (0.4 µg/µL) in PBS without MgCl2 and CaCl2) were mixed one to one, the resulting mixture was vortexed for 5 s and incubated for 30 min at room temperature. The pre-incubated transfection mix was added dropwise to the cells and cell cultivation was continued […]
Membrane preparation: Membranes were prepared as previously reported.8 In brief, membranes from HEK293T cells transiently expressing the respective GPCR were prepared as follows. The medium of the transfected cells was refreshed after 24 h before cells were harvested 48 h post-transfection. […]
Finally, the protein concentration was determined using the Lowry method.9 cDNA constructs: The CCR1-Nluc fusion construct (CCR1_Nluc) in pcDNA3.1 was generated as previously reported1 using the Gibson Assembly10 (New England Biolabs) method. […]

For `CN(C)c1ccc2c(-c3cc(C(=O)NCCOCCOCc4cn(CCCC(=O)C5=C(O)C(=O)N(c6ccc(Br)cc6F)C5C5CCCCC5)nn4)ccc3C(=O)[O-])c3ccc(=[N+](C)C)cc-3oc2c1` (centres unmarked) [compound 12], the Kd turned out to be 1900 ± 180 nM.

For `CN(C)c1ccc2c(-c3cc(C(=O)NCCOCCOCc4cn(CCCC(=O)C5=C(O)C(=O)N(c6ccc(Cl)cc6F)C5C5CCCCC5)nn4)ccc3C(=O)[O-])c3ccc(=[N+](C)C)cc-3oc2c1` (centres unmarked) [compound 11], the Kd turned out to be 3170 ± 370 nM.
